According to patent publication US12428394B2, “2,4-disubstituted pyrimidine derivative, preparation method therefor and use thereof” (CHENGDU ZENITAR BIOMEDICAL TECHNOLOGY CO., LTD., priority 2019, dated 2025):
pIC50: −log10 of the molar value.

Assays:
JAK2 = target: T1, JAK2 (Homo sapiens, UniProt O60674); test: In vitro kinase activity experiment, JAK2; type: biochemical; settings: inhibition rate of enzyme at 500 nM; measured by Eurofins
T1 construct: purchased Eurofins
Summary of the method: (§1)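 Radiometric filter-binding assay: kinase, its substrate and compound in 8 mM MOPS pH 7.0, 0.2 mM EDTA, 10 mM MnCl2, with 10 mM magnesium acetate and γ33P-ATP; MgATP started the reaction, 40 min at room temperature. Stopped with 3% phosphate, spotted on Filtermat A, washed, scintillation counted.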

SET-2 cells (JAK2 V617F) = test: Inhibition of cell proliferation by MTT experiment, SET-2; type: cell-based; settings: Homo sapiens, SET-2; MTT, 72 h; read-out: IC50 value on cell proliferation inhibition, SET-2 (V617F)
Summary of the method: (§2)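 MTT assay in MV4-11, MOLM-13 (FLT3-ITD) and SET-2 (JAK2 V617F) cells at 10,000–15,000 cells/well in IMDM with 10% FBS. Cells are exposed to compound for 72 h at 37 °C, then to MTT for 1–3 h. IC50 is fitted from inhibition rates across concentrations.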

FLT3 = target: T2, FLT3 (Homo sapiens, UniProt P36888); test: In vitro kinase activity experiment, FLT3; type: biochemical; settings: 40 min; inhibition rate of enzyme at 500 nM; measured by Eurofins; read-out: Kinase activity @ 500 nM (%) FLT3
T2 construct: purchased Eurofins
T2 sequence (P36888 27-993): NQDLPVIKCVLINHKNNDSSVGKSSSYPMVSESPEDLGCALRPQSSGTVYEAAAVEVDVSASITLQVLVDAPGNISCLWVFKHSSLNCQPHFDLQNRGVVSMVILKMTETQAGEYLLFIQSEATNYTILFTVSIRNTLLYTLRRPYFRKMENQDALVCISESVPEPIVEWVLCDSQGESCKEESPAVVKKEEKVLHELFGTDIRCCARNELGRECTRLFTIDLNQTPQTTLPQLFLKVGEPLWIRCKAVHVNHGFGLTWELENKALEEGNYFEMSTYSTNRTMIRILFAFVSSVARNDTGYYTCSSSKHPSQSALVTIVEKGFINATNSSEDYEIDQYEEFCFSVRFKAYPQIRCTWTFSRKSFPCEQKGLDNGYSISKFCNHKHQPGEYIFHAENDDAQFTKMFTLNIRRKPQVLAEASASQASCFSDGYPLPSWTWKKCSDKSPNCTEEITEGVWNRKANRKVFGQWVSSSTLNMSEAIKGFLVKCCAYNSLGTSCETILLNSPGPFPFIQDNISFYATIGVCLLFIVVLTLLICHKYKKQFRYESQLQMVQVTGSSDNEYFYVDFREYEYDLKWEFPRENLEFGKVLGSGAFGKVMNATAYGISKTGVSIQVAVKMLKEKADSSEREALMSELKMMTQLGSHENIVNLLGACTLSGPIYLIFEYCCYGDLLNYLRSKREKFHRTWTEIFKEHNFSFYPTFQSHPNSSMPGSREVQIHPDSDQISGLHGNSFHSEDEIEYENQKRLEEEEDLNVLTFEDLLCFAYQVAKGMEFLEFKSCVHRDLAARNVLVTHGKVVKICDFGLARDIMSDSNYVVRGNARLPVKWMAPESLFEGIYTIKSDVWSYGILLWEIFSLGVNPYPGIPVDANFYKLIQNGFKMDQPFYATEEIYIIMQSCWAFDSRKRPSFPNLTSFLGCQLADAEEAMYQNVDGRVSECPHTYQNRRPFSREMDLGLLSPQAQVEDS
Summary of the method: as §1

[1] = tested on: MOLM-13 cells (FLT3-ITD-/+); test: Inhibition of cell proliferation by MTT experiment, MOLM-13; type: cell-based, human; settings: Homo sapiens, MOLM-13; MTT, 72 h; read-out: IC50 value on cell proliferation inhibition, MOLM-13 FLT3-ITD-/+
Summary of the method: as §2

[2] = tested on: MV4-11 cells (FLT3-ITD+/+); test: Inhibition of cell proliferation by MTT experiment, MV4-11; type: cell-based, human; settings: Homo sapiens, MV4-11; MTT, 72 h; read-out: IC50 value on cell proliferation inhibition, MV4-11 FLT3-ITD+/+
Summary of the method: as §2

T1 sequence (O60674 whole entry): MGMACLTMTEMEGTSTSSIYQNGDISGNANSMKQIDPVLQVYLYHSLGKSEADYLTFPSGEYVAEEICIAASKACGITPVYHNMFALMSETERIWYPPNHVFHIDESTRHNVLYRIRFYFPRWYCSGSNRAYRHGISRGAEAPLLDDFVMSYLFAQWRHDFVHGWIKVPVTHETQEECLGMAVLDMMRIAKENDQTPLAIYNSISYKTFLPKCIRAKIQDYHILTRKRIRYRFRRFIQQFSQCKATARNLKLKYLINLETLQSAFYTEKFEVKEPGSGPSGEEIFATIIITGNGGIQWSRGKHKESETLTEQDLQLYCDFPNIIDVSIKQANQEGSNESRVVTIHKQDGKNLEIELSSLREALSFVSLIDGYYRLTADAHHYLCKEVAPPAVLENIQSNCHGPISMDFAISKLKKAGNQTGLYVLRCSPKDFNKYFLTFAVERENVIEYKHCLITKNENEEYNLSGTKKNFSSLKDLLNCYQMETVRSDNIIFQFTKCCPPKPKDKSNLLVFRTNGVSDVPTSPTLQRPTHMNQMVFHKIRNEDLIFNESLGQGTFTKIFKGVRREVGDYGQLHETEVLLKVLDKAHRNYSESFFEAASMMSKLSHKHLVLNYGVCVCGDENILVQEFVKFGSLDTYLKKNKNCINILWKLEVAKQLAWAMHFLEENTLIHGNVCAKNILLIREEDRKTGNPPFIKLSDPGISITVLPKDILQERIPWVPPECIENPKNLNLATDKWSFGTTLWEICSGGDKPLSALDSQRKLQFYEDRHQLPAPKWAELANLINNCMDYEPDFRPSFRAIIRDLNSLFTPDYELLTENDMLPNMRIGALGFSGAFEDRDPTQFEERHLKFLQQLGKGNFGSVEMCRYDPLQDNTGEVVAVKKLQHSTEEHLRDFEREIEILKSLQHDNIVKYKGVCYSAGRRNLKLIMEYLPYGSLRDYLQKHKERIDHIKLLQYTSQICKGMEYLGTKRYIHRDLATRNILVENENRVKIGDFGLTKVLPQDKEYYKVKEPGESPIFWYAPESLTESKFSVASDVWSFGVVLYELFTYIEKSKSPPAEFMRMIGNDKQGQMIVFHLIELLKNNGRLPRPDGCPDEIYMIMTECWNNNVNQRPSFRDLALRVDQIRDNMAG

| SMILES | Kinase activity @ 500 nM (%) JAK2 (JAK2) | inhibition at 0.5 µM (FLT3) | pIC50 [1] | pIC50 [2] | pIC50 (SET-2 cells (JAK2 V617F)) |
| --- | --- | --- | --- | --- | --- |
| CCCN1CC2(CCN(c3ccc(Nc4ncc(C)c(-c5cnn(C(C)C)c5)n4)cc3F)CC2)C1 [CLJ-72, N-(3-fluoro-4-(2,7-diazaspiro [3.5]nonane-2-propyl-7-yl)phenyl)-4-(1-isopropyl-1H-pyrazole-4-yl)-5-methylpyrimidine-2-amine] | 92% | 92% | 7.00 to 8.00 | 7.00 to 8.00 | 6.00 to 7.00 |
| CCCCN1CC2(CCN(c3ccc(Nc4ncc(C)c(-c5cnn(C(C)C)c5)n4)cc3F)CC2)C1 [CLJ-73, N-(3-fluoro-4-(2,7-diazaspiro [3.5]nonane-2-butyl-7-yl)phenyl)-4-(1-isopropyl-1H-pyrazole-4-yl)-5-methylpyrimidine-2-amine] | 91% | 97% | 6.00 to 7.00 | 6.00 to 7.00 | 6.00 to 7.00 |
| CCCCCCN1CC2(CCN(c3ccc(Nc4ncc(C)c(-c5cnn(C(C)C)c5)n4)cc3F)CC2)C1 [CLJ-74, N-(3-fluoro-4-(2,7-diazaspiro [3.5]nonane-2-hexyl-7-yl)phenyl)-4-(1-isopropyl-1H-pyrazole-4-yl)-5-methylpyrimidine-2-amine] | 98% | 97% | 7.00 to 8.00 | 7.00 to 8.00 | 7.00 to 8.00 |
| Cc1cnc(Nc2ccc(N3CCC4(CC3)CN(C(C)C)C4)c(F)c2)nc1-c1cnn(C(C)C)c1 [CLJ-75, N-(3-fluoro-4-(2,7-diazaspiro [3.5]nonane-2-isopropyl-7-yl)phenyl)-4-(1-isopropyl-1H-pyrazole-4-yl)-5-methylpyrimidine-2-amine] | 96% | 99% | 8.00 to 9.00 | 8.00 to 9.00 | 7.00 to 8.00 |

More lines, main results first:

| Kinase activity @ 500 nM (%) JAK2 (JAK2) | inhibition at 0.5 µM (FLT3) | pIC50 [1] | pIC50 [2] | SMILES | pIC50 (SET-2 cells (JAK2 V617F)) |
| --- | --- | --- | --- | --- | --- |
| 59% | 67% | 6.00 to 7.00 | 6.00 to 7.00 | Cc1cnc(Nc2ccc(N3CCC4(CC3)CN(C3CCCC3)C4)c(F)c2)nc1-c1cnn(C(C)C)c1 [CLJ-76, N-(3-fluoro-4-(2,7-diazaspiro [3.5]nonane-2-cyclopentyl-7-yl)phenyl)-4-(1-isopropyl-1H-pyrazole-4-yl)-5-methylpyrimidine-2-amine] | 6.00 to 7.00 |
| 54% | 55% | 6.00 to 7.00 | 6.00 to 7.00 | C=CC(=O)CCN1CC2(CCN(c3ccc(Nc4ncc(C)c(-c5cnn(C(C)C)c5)n4)cc3F)CC2)C1 [CLJ-77, 1-(7-(2-fluoro-4-((4-(1-isopropyl-1H-pyrazole-4-yl)-5-methylpyrimidine-2-yl)-amino)-phenyl)-2,7-diazaspiro [3.5]nonane-2-yl)-4-pentenamide] | 6.00 to 7.00 |
| 44% | 45% | 6.00 to 7.00 | 6.00 to 7.00 | Cc1cnc(Nc2ccc(CNC(=O)/C=C/CN(C)C)cc2)nc1-c1cnn(C(C)C)c1 [CLJ-79, (E)-N-(4-((4-(1-isopropyl-1H-pyrazole-4-yl)-5-methylpyrimidine-2-yl)amino)benzyl)-4-dimethylamino-2-butenamide] | 6.00 to 7.00 |
| 34% | 23% | < 6.00 | 6.00 to 7.00 | Cc1cnc(Nc2ccc(CCNC(=O)/C=C/CN(C)C)cc2)nc1-c1cnn(C(C)C)c1 [CLJ-80, (E)-N-(4-((4-(1-isopropyl-1H-pyrazole-4-yl)-5-methylpyrimidine-2-yl)amino)phenylethyl)-4-dimethylamino-2-butenamide] | < 6.00 |
| 34% | 22% | < 6.00 | < 6.00 | Cc1cnc(Nc2ccc(CNC(=O)/C=C/C(=O)c3ccccc3)cc2)nc1-c1cnn(C(C)C)c1 [CLJ-81, N-(4-((4-(1-isopropyl-1H-pyrazole-4-yl)-5-methylpyrimidine-2-yl)amino)benzyl)-3-benzoyl acrylamide] | < 6.00 |
